What was measured:
[1] = Broiler feeding trial, cecal 1H-NMR metabolomic analysis; format: in vivo, chickens
Experimental: A total of 63 samples have been provided to the Bio-NMR Group of Department of Agricultural and Food Science and Interdepartmental Centre for Industrial Agri-Food Research (CIRI) of University of Bologna, Italy, including 21 cecal samples, collected from the first time point, 21 from the second time point and 21 from the third time were available.
Preliminary analysis were performed on 63 samples subdivided as follows: control samples (A) fed with 10 mg/kg of Vit. B2, treated samples (B) fed with 50 mg/kg of Vit. B2, treated samples (C) fed with 100 mg/kg of Vit. B2. Samples were prepared for nuclear magnetic resonance (NMR) analysis by vortex mixing for 5 minutes stool with 1 mL of deionized water, followed by centrifugation for 10 minutes at 14,000 rpm and 4° C. About […] of supernatant was added to 100 μL of a D2O 1.5 M phosphate buffer solution containing 0.1% TSP (3-(trimethylsilyl)propionic acid-d4), NaN3 2 mM, set at pH 7.40. Before analysis, samples were centrifuged for 10 minutes again and then 590 uL transferred into an NMR tube.
Proton NMR (^1H-NMR) spectra were recorded at 298 K with an AVANCE III spectrometer (Bruker, Milan, Italy) operating at a frequency of 600.13 MHz. The Hydrogen Deuterium Oxide (HOD) residual signal was suppressed by presaturation, whereas broad signals from slowly tumbling molecules were removed by including a Carr-Purcell-Meiboom-Gill filter27 to a free induction decay sequence. The filter was made up by a train of 400 echoes separated by 800 μs, for a total time of 328 ms. Each spectrum was acquired by summing up 256 transients using 32 K data points over a 7211.54-Hz spectrum (for an acquisition time of 2.27 seconds). The recycle delay was set to 8 seconds, keeping into consideration the longitudinal relaxation time of the protons under investigation. Each spectrum was processed with Top Spin 3.0 (Bruker) by using an automatic command apk0.noe, which performs in one shot the baseline and phase correction and by applying a line-broadening factor of 1 Hz. […]

[2] = system: fecal microbial community; test: Microbiome composition by shotgun sequencing: alpha diversity (first set); format: cell-based, human; conditions: after 24 h fermentation, vs corresponding control

Compound | cecal propionate (1H-NMR integral area) ([1]; groups A, B, C, T0, T1, T2) | cecal butyrate (1H-NMR integral area) ([1]; groups A, B, C, T0, T1, T2 (14, 28, 38/42 days)) | cecal uracil (1H-NMR integral area) ([1]; samples C (100 mg/kg Vit. B2) vs others) | microbiome alpha diversity (Shannon diversity index) ([2]; 0.2× dose) | microbiome alpha diversity (Shannon diversity index) ([2]; 1× dose) | microbiome alpha diversity (Shannon diversity index) ([2]; 5× dose)
Cc1cc2nc3c(=O)[nH]c(=O)nc-3n(C[C@H](O)[C@H](O)[C@H](O)CO)c2cc1C [Vitamin B2, riboflavin] | A tendency to increase | not affected by both treatment and time | always higher than the others | – | – | –
Vitamin E | – | – | – | increase microbiome diversity | increase microbiome diversity | increase microbiome diversity

— patent US12508280B2, “Formulations for improving gut health” (DSM IP ASSETS B.V., priority 2018, dated 2025)
